Assay results as given in patent US4551460A, “Pyrido[2,1-b]quinazoline derivatives useful as agents for treatment of allergic conditions and vascular disorders involving thrombosis” (priority 1983, dated 1985).
Read-outs that look alike come from different tables or passages of the source.

How the values were obtained:
[1] = tested on: arachidonic acid induced platelet aggregation; assay: Arachidonic acid induced platelet aggregation in vitro; format: cell-based; settings: read-out: AA (IC50, arachidonic acid induced platelet aggregation)
Experimental: (§1) (1) Assay for Platelet Aggregation In Vitro
(§2) The turbidometric method of G. V. R. Born, Nature 194, 927 (1962) is used. Platelet rich plasma (PRP) and platelet poor plasma (PPP) are prepared with 0.38% sodium citrate-treated blood. Speed and time of centrifugation varied with different species; human:160 g for 20 minutes, dog:160 g for 15 minutes, guinea pig and rabbit:160 g for 15 minutes, and rat:230 g for 10 minutes. Aggregation is monitored with a Payton dual channel module or Chronolog lumiaggregometer when the release of ATP is simultaneously measured. 0.45 ml of PRP is added to a cuvette and prewarmed to 37° C. The stimulant (arachidonic acid or synthetic platelet activating factor) is added in volumes of 50 μl; all other agents in 5 μl. Vehicles are added to samples not containing agents. 0 to 100% light transmission is set with PRP and PPP. % aggregation is calculated from the % increase in light transmission at 5 minutes after the addition of the aggregating agent. For inhibition of aggregation studies the inhibitor is added first and preincubated with the platelets for 1 minute with stirring, followed by the stimulant. % inhibition is calculated from the % aggregation with and without the test compound. [formula]

[2] = tested on: PAF-induced bronchoconstriction; assay: Antagonism of PAF-induced bronchoconstriction in the guinea pig; format: in vivo, guinea pig (Hartley strain); settings: Cavia porcellus, po, 2 hour pretreatment; read-out: ID50 antagonism of PAF-induced bronchoconstriction
Experimental: (g) Antagonism of PAF and Histamine-induced Bronchoconstriction in Guinea Pig
Spontaneously breathing male guinea pigs (Hartley strain) weighing 300-450 grams are dosed orally with test drug or control vehicle two hours prior to challenge with agonist. The animals are anesthetized with urethane (2 gm/kg) intraperitoneally and the jugular vein and trachea are cannulated. Two hours after dosing, the animal is paralyzed with succinylcholine (1.2 mg/kg, i.v.) and ventilated (Harvard rodent respirator) at 40 breaths/minutes and 2.5 cc tidal volume. Propranolol (0.1 mg/kg, i.v.) is administered and five minutes thereafter the animal is challenged with a constrictory dose of platelet activating factor (10 μg/kg, i.v.) or histamine dihydrochloride (20 μg/kg, i.v.). The change (cm H2 O) between pre and peak ventilatory pressure readings is averaged for three control animals and five drug treated animals. The percent inhibition is calculated from the following formula: (Control-Drug Treated/Control)×100.

[3] = tested on: platelet activating factor induced platelet aggregation; assay: Platelet activating factor induced platelet aggregation in vitro; format: cell-based; settings: racemic platelet activating factor; read-out: PAF (IC50, platelet activating factor induced platelet aggregation)
Experimental: as §1, §2

[4] = target: T1, TXA2 synthase in human platelet microsomes (Homo sapiens, UniProt P24557); assay: Thromboxane synthase (TXA2 syn.) inhibitory activity; format: biochemical; settings: 10 μM PGH2
T1 construct: using microsomal fractions from human platelets as enzyme source; from tissue; host or cells: human platelets, microsomal fraction
T1 sequence (P24557 1-533): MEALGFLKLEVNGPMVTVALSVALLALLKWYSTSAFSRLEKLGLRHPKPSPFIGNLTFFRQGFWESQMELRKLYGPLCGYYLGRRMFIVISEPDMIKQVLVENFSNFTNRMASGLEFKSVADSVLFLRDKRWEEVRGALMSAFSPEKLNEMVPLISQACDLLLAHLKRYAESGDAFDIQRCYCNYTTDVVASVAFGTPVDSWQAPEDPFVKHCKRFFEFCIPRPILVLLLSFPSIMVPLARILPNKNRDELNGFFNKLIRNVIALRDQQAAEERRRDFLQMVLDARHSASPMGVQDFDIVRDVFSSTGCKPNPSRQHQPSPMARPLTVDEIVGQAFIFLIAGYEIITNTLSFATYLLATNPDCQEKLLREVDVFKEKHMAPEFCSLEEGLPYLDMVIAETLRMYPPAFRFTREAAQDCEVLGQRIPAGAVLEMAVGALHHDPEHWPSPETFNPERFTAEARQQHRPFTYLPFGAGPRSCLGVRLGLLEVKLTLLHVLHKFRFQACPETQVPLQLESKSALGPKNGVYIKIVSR
Experimental: (d) Assay for Thromboxane Synthase (TXA2 Syn.) Inhibitory Activity
TXA2 syn. activity is measured by following the conversion of ^14 C-prostaglandin endoperoxide (PGH2) to ^14 C-thromboxane A2 (TXA2) using microsomal fractions from human platelets as enzyme source. In the aqueous incubation medium, the TXA2 decomposes rapidly into TXB2. The amount of TXA2 syn. is adjusted so that under the conditions of the assay approximately 80-90% of the substrate, PGH2, is converted to product in control tubes. To prepare ^14 C-PGH2, ^14 C-AA (50-60 mCi/mmole; Rose Chem.) is incubated with sheep seminal vesicular gland microsomes for 1.5 min at 37° and then the ^14 C-PGH2 is extracted with diethylether, purified on columns of Sephadex LH-20 or silicic acid, and stored in acetone at -70° C. Incubations are done as follows. Sufficient ^14 C-PGH2 to yield a final substrate concentration of 10 μM (~30,000 cpm) is added to the incubation tubes and then the acetone is removed under nitrogen. The tubes are placed in an ice bath and then 215 μl of ice cold phosphate buffered saline, 10 μl of ethanol (control) or of test drug in ethanol, and 25 μl of the microsomal suspension are added with mixing in that order as rapidly as possible. The tubes are incubated at 22° for 2 minutes, the reaction is stopped and then the radioactive products and the uncoverted PGH2 are extracted and analyzed by thin layer chromatography. […] The amount of ^14 C-PGH2 converted to products was used as a measure of TXA2 synthase activity. Inhibitors were tested initially at a final concentration of 100 μM.

[5] = tested on: KCl-induced constriction in guinea pig ilea; assay: Antagonism of KCl-induced constriction in guinea pig ilea
Experimental: (h) Antagonism of KCl-induced Constriction in Guinea Pig Ilea
A 1-1.5 cm segment of guinea pig ileum removed from animals weighing 200-250 g is suspended in an organ bath containing 10 ml of Tyrodes solution with 10^-6 M atropine sulfate and 10^-6 M pyrilamine maleate. The bath is maintained at 37° C. and aerated with a mixture of 95% O2 and 5% CO2. KCl induces isometric constrictions of the ileum at concentrations between 10-30mM. The contractions consist of two phases, an initial fast contraction (the phasic portion), followed by a relaxation down to less intense but more prolonged contraction (the tonic phase). Varying concentrations of test drugs are incubated with the ileum for three minutes prior to KCl-challenge. The drug concentrations, which inhibit by 50% the phasic and tonic portion of the KCl-induced constrictions, are determined (IC50 's).

[6] = phasic, read-out: IC50 antagonism of KCl-induced constriction (phasic)
[7] = tonic, read-out: IC50 antagonism of KCl-induced constriction (tonic)

| SMILES | IC50 [1] [µM] | ED50 [2] [mg/kg] | IC50 [3] [µM] | IC50 [4] [µM] | IC50 [5, 6] [µM] | IC50 [5, 7] [µM] |
| --- | --- | --- | --- | --- | --- | --- |
| CC(C)c1ccc2nc3ccc(C(=O)NCCCCn4ccnc4)cn3c(=O)c2c1 [Compound A, N-[4-(1H-imidazol-1-yl)butyl]-2-(1-methylethyl)-11-oxo-11H-pyrido[2,1-b]quinazoline-8-carboxamide] | < 10 | 13 | > 10 | 0.1 to 1 | 17 | 10 |
| CC(C)c1ccc2nc3ccc(C(=O)NCCCCCCc4cccnc4)cn3c(=O)c2c1 [Compound C, 2-(1-Methylethyl)-N-[6-(3-pyridyl)hexyl]-11-oxo-11H-pyrido[2,1-b]quinazoline-8-carboxamide] | < 10 | 50 | < 10 | 0.1 | 5.4 | 2.4 |
| CC(C)c1ccc2nc3ccc(C(=O)NCCCCc4cccnc4)cn3c(=O)c2c1 [Compound B, 2-(1-methylethyl)-N-[4-(3-pyridyl)butyl]-11-oxo-11H-pyrido[2,1-b]quinazoline-8-carboxamide] | < 10 | 100 | < 10 | 0.1 to 1 | 13 | 8 |
